# Results from patent publication US8105994B2, “Personal wash cleanser comprising defined alkanoyl compounds, defined fatty acyl isethionate surfactant product and skin or hair benefit agent delivered in flocs upon dilution” (priority 2010, dated 2012).
# Tested on: skin, intrascapular area of the back
# Assay: 14-day cumulative irritation Patch Test, cleansers diluted to 25% w/w in distilled water, occlusive patch
# Experimental: This was randomized, double-blind study. A sufficient number of subjects were recruited to ensure that 25 subjects completed the study. The 14-day cumulative irritation test was conducted as follows. Patching occurred for 14 consecutive days, except on Sundays. Patches applied on Saturday were left in place until Monday, when freshly prepared patches were applied. The designated patch test sites were approximately 2 cm×2 cm on the intrascapular area of the back. Approximately 0.2 mL of the test product was placed onto a Parke-Davis Readi-Bandage® occlusive patch that measured 2 cm×2 cm. Solutions were made by diluting the cleansers to 25% w/w in distilled water. The patch was then applied to the designated test site. The patches were secured with hypoallergenic tape (Scanpor {Allerderm} as needed). A 0.5% sodium dodecyl sulfate (SDS) solution was used as the control in the test.
# Each day following application, the patches were removed, the sites evaluated and identical patches reapplied to the same test sites. All evaluations were made using the following 6-point scoring system: • 0=No evidence of any effect • +=Barely perceptible (minimal, faint, uniform or spotty erythema) numerically equivalent to 0.5 • 1=Mild (pink, uniform erythema covering most of the contact site) • 2=Moderate (pink-red, erythema uniform in the entire contact site) • 3=Marked (bright red erythema with/without petechiae or papules) • 4=Severe (deep red erythema with/without vesiculation or weeping)
# If a dermal reaction of 3 or 4 occur with any of the test articles at any point during the study, further patch testing on that subject was terminated at the test site involved, and the attained score was assigned to that site for the subsequent scheduled test days.
# Cumulative irritation scores, which were the sum of the numerical irritation grades assigned daily during the 14-day test period, were calculated at the end of the study to compare mildness of the test products. […] The data were statistically analyzed using Tukey-Kramer Comparison, and statistical significance was determined at the 95% confidence level.
smiles,measurement,setting,value
"CCCCCCCCCCCCOS(=O)(=O)[O-].[Na+] [0.5% SDS Solution, sodium dodecyl sulfate]",Total irritation score compared to 0.5% SDS solution,"Table 1, first patch test (Olay products)",100%
same,Patch test Total irritation score,"Table 1, first patch test (Olay products; 0.5% SDS control 783)",783
same,Total irritation score compared to 0.5% SDS solution,"Table 1, second patch test (Dove Deep Moisture)",100%
same,Patch test Total irritation score,"Table 1, second patch test (Dove Deep Moisture; 0.5% SDS control 912)",912
